From US20260042774A1, “CAMPTOTHECIN-7-ETHYLAMINE DERIVATIVE, PREPARATION METHOD THEREFOR, AND USE THEREOF” (HANGZHOU ADCORIS BIOPHARMA CO., LTD, priority 2022, published 2026)
Where two headings read alike, the source gives them in different places.

Experiments:
Type in all cases: cell-based
NCI-H1975 = assay: Tumor cell growth inhibitory activity, NCI-H1975
MDA-MB-231 = assay: Tumor cell growth inhibitory activity, MDA-MB-231; conditions: MDA-MB-231 cells, read-out: IC50 (nM) for inhibiting the growth of tumor cells, MDA-MB-231
[1] = test system: human gastric cancer cells NCI-N87; assay: Tumor cell growth inhibitory activity (CCK-8), NCI-N87
Method: (§1) Human esophageal cancer cells OE33 (human breast adenocarcinoma cells SK-BR-3, or human gastric cancer cells NCI-N87) was cultured in RPMI1640 (Cellmax) supplemented with 10% fetal bovine serum (Cellmax). Cells in the exponential growth phase were diluted to a concentration of 1×10^5 cells/mL by culture medium and added to 96-well cell culture plates at 100 μL per well, then returned back and incubated overnight in a 37° C. incubator with 5% CO2. On the following day, the compounds were diluted to concentrations of 10000 nM, 2000 nM, 400 nM, 80 nM, 16 nM, 3.2 nM, 0.64 nM, and 0.13 nM by culture medium and the diluted compounds were added to the 96-well cell culture plates at 2 μL per well, with three replicate wells for each concentration. Negative control and blank control groups without addition of compounds were added with 2 μL of the dilution liquid per well. After the addition of the compounds, the plates were returned back to the 37° C. incubator with 5% CO2 to continue the incubation for 72 h. After the incubation, the cell culture plates were removed, and the culture medium was aspirated using a pipette. Then, 100 μL of culture medium containing 10% CCK-8 was added to each well, and the plates were incubated at 37° C. for 3 h. After the incubation, the plates were removed, kept in the dark, and placed in an ELISA plate. Absorbance was measured at 630 nm as the reference wavelength and 450 nm as the test wavelength. The IC50 values (Table 2) were calculated using the four-parameter logistic regression method in GraphPad.

[2] = test system: Human esophageal cancer cells OE33; assay: Tumor cell growth inhibitory activity (CCK-8), OE33
Method: as §1

[3] = test system: human breast adenocarcinoma cells SK-BR-3; assay: Tumor cell growth inhibitory activity (CCK-8), SK-BR-3
Method: as §1

[4] = Homo sapiens, NCI-H1975 cells, read-out: IC50 (nM) for inhibiting the growth of tumor cells, NCI-H1975
[5] = Homo sapiens, NCI-N87 cells, 72 h incubation, CCK-8, read-out: IC50 (nM) for inhibiting the growth of tumor cells, NCI-N87
[6] = Homo sapiens, OE33 cells, 72 h incubation, CCK-8, read-out: IC50 (nM) for inhibiting the growth of tumor cells, OE33
[7] = Homo sapiens, SK-BR-3 cells, 72 h incubation, CCK-8, read-out: IC50 (nM) for inhibiting the growth of tumor cells, SK-BR-3
[8] = Homo sapiens, NCI-N87, 72 h, read-out: IC50 (nM) for inhibiting the growth of tumor cells, NCI-N87, NCI-N87 cells, 72 h incubation, CCK-8
[9] = Homo sapiens, OE33, 72 h, read-out: IC50 (nM) for inhibiting the growth of tumor cells, OE33, OE33 cells, 72 h incubation, CCK-8
[10] = Homo sapiens, SK-BR-3, 72 h, read-out: IC50 (nM) for inhibiting the growth of tumor cells, SK-BR-3, SK-BR-3 cells, 72 h incubation, CCK-8
[11] = Homo sapiens, NCI-H1975, read-out: IC50 (nM) for inhibiting the growth of tumor cells, NCI-H1975, NCI-H1975 cells

SMILES: CC[C@@]1(O)C(=O)OCc2c1cc1n(c2=O)Cc2c-1nc1cc(F)c(F)cc1c2CCNC1CCOCC1 [Compound 13, 7-(2-(Tetrahydropyran-4-yl)amino)ethyl-10,11-difluorocamptothecin]
- IC50 (NCI-H1975; [4]): 9.83 nM
- IC50 (MDA-MB-231; Homo sapiens): 72.7 nM
- IC50 [1, 5]: 0.93 nM
- IC50 [2, 6]: 1.96 nM
- IC50 [3, 7]: 5.63 nM

SMILES: CC[C@@]1(O)C(=O)OCc2c1cc1n(c2=O)Cc2c-1nc1cc(F)c(F)cc1c2CCNC1CCC(OC)CC1 (some centres unmarked) [Compound 14, 7-(2-(4-Methoxycyclohexyl)amino)ethyl-10,11-difluorocamptothecin]
- IC50 (NCI-H1975; [4]): 383 nM
- IC50 (MDA-MB-231; Homo sapiens): 460 nM
- IC50 [1, 5]: 5.3 nM
- IC50 [2, 6]: 26.1 nM
- IC50 [3, 7]: 36.1 nM

SMILES: CC[C@@]1(O)C(=O)OCc2c1cc1n(c2=O)Cc2c-1nc1cc(F)c(F)cc1c2CCNCCN=[N+]=[N-] [Compound 15, 7-(2-(2-Azidoethyl)amino)ethyl-10,11-difluorocamptothecin]
- IC50 (NCI-H1975; [4]): 115 nM
- IC50 [1, 5]: 1.02 nM
- IC50 [2, 6]: 32.3 nM
- IC50 [3, 7]: 7.5 nM

SMILES: CC[C@@]1(O)C(=O)OCc2c1cc1n(c2=O)Cc2c-1nc1cc3c(cc1c2CCNCCN=[N+]=[N-])OCO3 [Compound 16, 7-(2-(2-Azidoethyl)amino)ethyl-10,11-methylenedioxycamptothecin]
- IC50 (NCI-H1975; read-out: IC50 (nM) for inhibiting the growth of tumor cells, NCI-H1975, NCI-H1975 cells): 9.22 nM
- IC50 (MDA-MB-231): 116 nM
- IC50 ([1]; read-out: IC50 (nM) for inhibiting the growth of tumor cells, NCI-N87, NCI-N87 cells, 72 h incubation, CCK-8): 1.01 nM
- IC50 ([2]; read-out: IC50 (nM) for inhibiting the growth of tumor cells, OE33, OE33 cells, 72 h incubation, CCK-8): 3.13 nM
- IC50 ([3]; read-out: IC50 (nM) for inhibiting the growth of tumor cells, SK-BR-3, SK-BR-3 cells, 72 h incubation, CCK-8): 8.96 nM

SMILES: CC[C@@]1(O)C(=O)OCc2c1cc1n(c2=O)Cc2c-1nc1cc3c(cc1c2CCNC1CCC(O)CC1)OCO3 (some centres unmarked) [Compound 26, 7-(2-(4-Hydroxycyclohexyl)amino)ethyl-10,11-methylenedioxycamptothecin]
- IC50 [1, 8]: 150 nM
- IC50 [2, 9]: 129 nM
- IC50 [3, 10]: 218 nM

SMILES: CC[C@@]1(O)C(=O)OCc2c1cc1n(c2=O)Cc2c-1nc1cc3c(cc1c2CCN[C@@H](C)CO)OCO3 [Compound 28, 7-(2-((S)-Hydroxyisopropyl)amino)ethyl-10,11-methylenedioxycamptothecin]
- IC50 (NCI-H1975; [11]): 119 nM
- IC50 [1, 8]: 61.5 nM
- IC50 [2, 9]: 49.6 nM
- IC50 [3, 10]: 77.2 nM

SMILES: CC[C@@]1(O)C(=O)OCc2c1cc1n(c2=O)Cc2c-1nc1cc3c(cc1c2CCN(CCOC)C(=O)CO)OCO3 [Compound 32, 7-(2-(N-Hydroxyacetyl(2-methoxyethyl))amino)ethyl-10,11-methylenedioxycamptothecin]
- IC50 [1, 5]: 2.09 nM
- IC50 [2, 6]: 11.6 nM
- IC50 [3, 7]: 6.48 nM

SMILES: CC[C@@]1(O)C(=O)OCc2c1cc1n(c2=O)Cc2c-1nc1cc3c(cc1c2CCN(CC(F)F)C(=O)CO)OCO3 [Compound 33, 7-(2-(N-Hydroxyacetyl(2-difluoroethyl))amino)ethyl-10,11-methylenedioxycamptothecin]
- IC50 [1, 8]: 2.63 nM
- IC50 [2, 9]: 11.9 nM
- IC50 [3, 10]: 8.93 nM

SMILES: CC[C@@]1(O)C(=O)OCc2c1cc1n(c2=O)Cc2c-1nc1cc3c(cc1c2CCNC(=O)CN=[N+]=[N-])OCO3 [Compound 37, 7-(2-Azidoacetylamino)ethyl-10,11-methylenedioxycamptothecin]
- IC50 (NCI-H1975; [11]): 229 nM
- IC50 [1, 8]: 5.57 nM
- IC50 [2, 9]: 25.2 nM
- IC50 [3, 10]: 41.3 nM

SMILES: CC[C@@]1(O)C(=O)OCc2c1cc1n(c2=O)Cc2c-1nc1cc3c(cc1c2CCNS(C)(=O)=O)OCO3 [Compound 38, 7-(2-Methanesulfonamido)ethyl-10,11-methylenedioxycamptothecin]
- IC50 (NCI-H1975; [11]): 282 nM
- IC50 [1, 8]: 48 nM
- IC50 [2, 9]: 199 nM
- IC50 [3, 10]: 332 nM

SMILES: CC[C@@]1(O)C(=O)OCc2c1cc1n(c2=O)Cc2c-1nc1cc3c(cc1c2CCNc1ncn[nH]1)OCO3 [Compound 41, 7-(2-(1,2,4-Triazol-5-ylamino))ethyl-10,11-methylenedioxycamptothecin]
- IC50 (NCI-H1975; [11]): 136 nM
- IC50 [1, 8]: 33.9 nM
- IC50 [2, 9]: 24.2 nM
- IC50 [3, 10]: 89.9 nM
